Where a name gives a salt, the structure may show the parent alone. Blank lines part the entries; values can stand above or below the compound they belong to.
Key:
[1] = target: T1, Muscarinic M2 (Homo sapiens, UniProt P08172); test: InVEST radioligand filter binding, Muscarinic M2; conditions: read-out: IC50 (M) of reference compound, tested in parallel
T1 sequence (P08172 1-466): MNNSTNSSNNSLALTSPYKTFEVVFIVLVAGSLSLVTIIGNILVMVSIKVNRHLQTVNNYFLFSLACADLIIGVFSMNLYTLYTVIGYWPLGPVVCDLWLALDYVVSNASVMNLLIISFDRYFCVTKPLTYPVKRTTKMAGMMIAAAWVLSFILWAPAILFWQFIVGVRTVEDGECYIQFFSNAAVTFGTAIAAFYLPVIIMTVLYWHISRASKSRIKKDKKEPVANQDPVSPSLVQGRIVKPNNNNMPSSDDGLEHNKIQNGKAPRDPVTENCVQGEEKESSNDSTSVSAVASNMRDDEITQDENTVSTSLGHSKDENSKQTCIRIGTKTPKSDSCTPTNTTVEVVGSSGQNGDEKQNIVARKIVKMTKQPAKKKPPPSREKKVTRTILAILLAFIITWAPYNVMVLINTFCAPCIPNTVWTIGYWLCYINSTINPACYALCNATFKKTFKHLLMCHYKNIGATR

[2] = target: T2, AHR-activation (Homo sapiens, UniProt P35869)
T2 sequence (P35869 11-848): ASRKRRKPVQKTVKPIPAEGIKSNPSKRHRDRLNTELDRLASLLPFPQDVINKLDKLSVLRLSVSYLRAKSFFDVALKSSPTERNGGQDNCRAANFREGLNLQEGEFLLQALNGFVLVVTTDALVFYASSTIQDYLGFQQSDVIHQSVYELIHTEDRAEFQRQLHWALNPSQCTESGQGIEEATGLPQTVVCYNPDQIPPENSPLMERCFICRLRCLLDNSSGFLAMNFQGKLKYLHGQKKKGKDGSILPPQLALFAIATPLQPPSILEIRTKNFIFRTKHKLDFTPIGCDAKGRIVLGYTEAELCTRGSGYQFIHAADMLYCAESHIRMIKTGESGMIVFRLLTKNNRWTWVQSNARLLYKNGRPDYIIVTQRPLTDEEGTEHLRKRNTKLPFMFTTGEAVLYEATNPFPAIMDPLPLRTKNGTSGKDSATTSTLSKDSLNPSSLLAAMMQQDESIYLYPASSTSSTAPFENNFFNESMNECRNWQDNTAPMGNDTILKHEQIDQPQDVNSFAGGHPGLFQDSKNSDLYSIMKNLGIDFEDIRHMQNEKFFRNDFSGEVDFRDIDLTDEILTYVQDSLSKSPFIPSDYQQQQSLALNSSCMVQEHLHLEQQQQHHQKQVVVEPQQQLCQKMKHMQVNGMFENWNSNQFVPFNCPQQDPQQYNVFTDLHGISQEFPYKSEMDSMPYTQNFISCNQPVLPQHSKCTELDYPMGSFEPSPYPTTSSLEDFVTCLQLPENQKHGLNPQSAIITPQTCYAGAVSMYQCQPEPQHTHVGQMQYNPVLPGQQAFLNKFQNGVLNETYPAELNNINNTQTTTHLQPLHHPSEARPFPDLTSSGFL

[3] = target: 5-HT1B (Homo sapiens, UniProt P28222); test: InVEST radioligand filter binding, 5-HT1B
Chain of 5-HT1B (P28222 whole entry): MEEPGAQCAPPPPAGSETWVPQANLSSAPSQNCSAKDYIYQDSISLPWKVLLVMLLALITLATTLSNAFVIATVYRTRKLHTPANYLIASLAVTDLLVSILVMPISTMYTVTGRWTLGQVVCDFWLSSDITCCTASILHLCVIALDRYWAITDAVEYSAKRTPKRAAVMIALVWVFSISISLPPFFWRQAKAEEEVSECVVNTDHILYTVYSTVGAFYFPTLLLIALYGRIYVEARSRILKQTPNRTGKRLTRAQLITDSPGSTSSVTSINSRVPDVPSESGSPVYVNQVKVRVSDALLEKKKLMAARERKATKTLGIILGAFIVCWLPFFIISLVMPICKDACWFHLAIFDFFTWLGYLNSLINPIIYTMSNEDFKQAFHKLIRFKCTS

[4] = target: T3, 5-HT3 (Homo sapiens, UniProt P46098); test: InVEST radioligand filter binding, ion channel 5-HT3; conditions: read-out: IC50 (M) of reference compound, tested in parallel
T3 sequence (P46098 24-478): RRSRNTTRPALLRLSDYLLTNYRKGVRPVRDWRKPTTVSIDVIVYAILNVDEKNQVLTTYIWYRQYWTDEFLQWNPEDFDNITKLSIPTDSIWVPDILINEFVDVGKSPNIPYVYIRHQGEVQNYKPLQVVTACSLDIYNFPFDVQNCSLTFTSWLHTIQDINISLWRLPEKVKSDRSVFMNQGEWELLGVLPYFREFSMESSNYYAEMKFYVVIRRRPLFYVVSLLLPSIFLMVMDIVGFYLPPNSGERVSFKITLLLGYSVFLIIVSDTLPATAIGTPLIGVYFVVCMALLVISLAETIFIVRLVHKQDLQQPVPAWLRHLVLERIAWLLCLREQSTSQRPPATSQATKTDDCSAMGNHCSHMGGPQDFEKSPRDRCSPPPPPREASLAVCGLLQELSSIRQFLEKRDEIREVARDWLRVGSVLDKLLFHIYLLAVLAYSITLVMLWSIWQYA

[5] = target: PDE3A (Homo sapiens, UniProt Q14432); test: InVEST enzymatic activity, PDE3A; type: biochemical; conditions: read-out: IC50 (M) of reference compound, tested in parallel
Chain of PDE3A (Q14432 whole entry): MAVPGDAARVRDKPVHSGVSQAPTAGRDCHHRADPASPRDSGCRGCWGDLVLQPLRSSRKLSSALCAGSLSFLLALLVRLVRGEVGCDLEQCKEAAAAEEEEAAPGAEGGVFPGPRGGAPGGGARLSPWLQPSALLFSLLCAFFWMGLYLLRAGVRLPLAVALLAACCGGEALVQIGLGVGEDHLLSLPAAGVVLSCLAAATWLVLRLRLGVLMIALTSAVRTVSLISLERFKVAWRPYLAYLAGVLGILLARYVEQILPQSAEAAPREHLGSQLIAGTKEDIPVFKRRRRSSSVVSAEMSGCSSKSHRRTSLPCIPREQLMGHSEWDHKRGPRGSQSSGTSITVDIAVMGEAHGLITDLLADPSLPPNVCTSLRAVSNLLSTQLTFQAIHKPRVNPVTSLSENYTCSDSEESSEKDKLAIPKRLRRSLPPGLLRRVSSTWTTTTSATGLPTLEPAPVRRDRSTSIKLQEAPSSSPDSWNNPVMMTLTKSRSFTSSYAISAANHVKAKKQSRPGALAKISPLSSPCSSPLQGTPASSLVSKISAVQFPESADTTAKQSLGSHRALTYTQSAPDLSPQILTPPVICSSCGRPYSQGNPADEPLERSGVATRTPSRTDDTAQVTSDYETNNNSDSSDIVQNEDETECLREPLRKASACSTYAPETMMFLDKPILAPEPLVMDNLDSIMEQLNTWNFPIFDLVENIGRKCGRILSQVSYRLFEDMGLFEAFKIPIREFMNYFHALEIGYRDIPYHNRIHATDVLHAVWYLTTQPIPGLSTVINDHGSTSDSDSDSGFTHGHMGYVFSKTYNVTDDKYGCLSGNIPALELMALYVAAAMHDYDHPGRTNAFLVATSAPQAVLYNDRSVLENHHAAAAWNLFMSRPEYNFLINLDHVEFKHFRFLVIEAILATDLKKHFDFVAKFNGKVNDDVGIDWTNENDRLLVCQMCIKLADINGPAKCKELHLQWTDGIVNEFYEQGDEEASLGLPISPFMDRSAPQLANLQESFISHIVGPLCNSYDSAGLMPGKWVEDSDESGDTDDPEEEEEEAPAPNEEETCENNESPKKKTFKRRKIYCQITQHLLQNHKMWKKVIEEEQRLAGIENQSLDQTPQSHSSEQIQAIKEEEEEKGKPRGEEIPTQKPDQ

[6] = target: PDE4A (Homo sapiens, UniProt P27815); test: InVEST enzymatic activity, PDE4A; type: biochemical; conditions: read-out: IC50 (M) of reference compound, tested in parallel
Chain of PDE4A (P27815 whole entry): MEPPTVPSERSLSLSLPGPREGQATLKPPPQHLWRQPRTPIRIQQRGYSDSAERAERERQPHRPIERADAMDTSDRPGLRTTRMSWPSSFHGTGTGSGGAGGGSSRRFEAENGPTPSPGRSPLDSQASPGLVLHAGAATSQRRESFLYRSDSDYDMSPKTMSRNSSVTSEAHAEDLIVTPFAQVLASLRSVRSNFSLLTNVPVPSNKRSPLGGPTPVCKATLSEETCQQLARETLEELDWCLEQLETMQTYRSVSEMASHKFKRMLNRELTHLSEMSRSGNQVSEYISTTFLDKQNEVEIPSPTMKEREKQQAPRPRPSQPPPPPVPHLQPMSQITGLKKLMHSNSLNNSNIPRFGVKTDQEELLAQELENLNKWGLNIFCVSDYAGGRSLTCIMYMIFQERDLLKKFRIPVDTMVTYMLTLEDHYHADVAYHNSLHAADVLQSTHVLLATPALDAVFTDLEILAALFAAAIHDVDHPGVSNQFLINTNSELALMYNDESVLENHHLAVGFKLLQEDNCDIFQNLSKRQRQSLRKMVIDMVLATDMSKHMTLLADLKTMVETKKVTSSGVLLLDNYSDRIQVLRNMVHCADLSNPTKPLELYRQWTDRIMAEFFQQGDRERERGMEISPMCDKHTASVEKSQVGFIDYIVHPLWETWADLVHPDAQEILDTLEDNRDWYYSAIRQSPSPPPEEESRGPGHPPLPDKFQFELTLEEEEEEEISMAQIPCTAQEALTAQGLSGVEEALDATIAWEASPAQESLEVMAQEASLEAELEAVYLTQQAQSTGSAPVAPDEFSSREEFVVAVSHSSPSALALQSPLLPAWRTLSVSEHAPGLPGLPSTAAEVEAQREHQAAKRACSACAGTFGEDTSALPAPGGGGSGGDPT

[7] = target: T4, alpha2A adrenergic (Homo sapiens, UniProt P08913); test: InVEST radioligand filter binding, alpha2A adrenergic; conditions: read-out: IC50 (M) of reference compound, tested in parallel
T4 sequence (P08913 1-465): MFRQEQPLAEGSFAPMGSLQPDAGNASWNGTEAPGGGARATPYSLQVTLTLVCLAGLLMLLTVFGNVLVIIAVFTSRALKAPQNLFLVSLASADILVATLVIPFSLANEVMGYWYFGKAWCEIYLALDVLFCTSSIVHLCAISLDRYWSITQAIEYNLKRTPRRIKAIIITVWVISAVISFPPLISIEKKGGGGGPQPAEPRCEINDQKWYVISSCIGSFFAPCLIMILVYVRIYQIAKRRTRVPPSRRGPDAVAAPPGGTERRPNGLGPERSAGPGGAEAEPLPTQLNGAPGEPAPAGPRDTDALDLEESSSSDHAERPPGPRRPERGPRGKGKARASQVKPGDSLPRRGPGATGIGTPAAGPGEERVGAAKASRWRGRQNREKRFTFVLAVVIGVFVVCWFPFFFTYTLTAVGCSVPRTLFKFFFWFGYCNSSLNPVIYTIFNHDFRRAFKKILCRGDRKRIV

[8] = target: Thrombin alpha (Homo sapiens, UniProt P00734); test: InVEST enzymatic activity, Thrombin alpha; type: biochemical; conditions: read-out: IC50 (M) of reference compound, tested in parallel
[9] = target: T5, CCK (Homo sapiens, UniProt P32238); test: InVEST radioligand filter binding, CCK
T5 sequence (P32238 1-428): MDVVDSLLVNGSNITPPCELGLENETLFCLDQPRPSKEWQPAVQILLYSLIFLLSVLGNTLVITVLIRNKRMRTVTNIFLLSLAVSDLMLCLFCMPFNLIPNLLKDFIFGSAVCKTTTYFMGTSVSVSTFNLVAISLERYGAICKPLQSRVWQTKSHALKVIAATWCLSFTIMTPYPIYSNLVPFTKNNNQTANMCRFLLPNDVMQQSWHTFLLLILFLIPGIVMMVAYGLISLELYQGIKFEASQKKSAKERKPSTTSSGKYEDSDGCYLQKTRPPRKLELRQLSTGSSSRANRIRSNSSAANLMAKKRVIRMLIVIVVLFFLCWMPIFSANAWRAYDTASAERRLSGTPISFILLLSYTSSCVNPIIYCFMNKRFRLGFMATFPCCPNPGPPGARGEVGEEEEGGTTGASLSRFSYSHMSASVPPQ

[10] = target: T6, AHR-inhibition (Homo sapiens, UniProt P35869); test: InVEST fluorescence polarization binding/cell-based activity, AHR-inhibition; conditions: read-out: IC50 (M) of reference compound, + 10 nM FICZ, tested in parallel
T6 sequence (P35869 11-848): T2 sequence (P35869 11-848)

Compound: CCCN(CCC)CC1CCCCN1CCNC(=O)N1c2ccccc2C(=O)Nc2cccnc21 (stereo not shown) [AF-DX 384, reference compound]
IC50 [1]: 1.79e-08 M

Compound: O=Cc1c2[nH]c3ccccc3c2cc2[nH]c3ccccc3c12 [FICZ]
IC50 [2]: 10.5 nM

Compound: Cc1[nH]cnc1CCC(=O)c1cn(C)c2ccccc12 [GR 65630, reference compound]
IC50 [4]: 1.09e-09 M

Compound: CCOC(=O)c1ccc(OC(=O)CCCCCN=C(N)N)cc1 [gabexate mesylate, reference compound]
IC50 [8]: 2.26e-06 M

Further lines, results first:

IC50 [3]: 4.85 nM
Compound: COc1ccc(NC(=O)c2ccc(-c3ccncc3)c(C)c2)cc1N1CCN(C)CC1 [GR125743, reference compound]

IC50 [5]: 2.21e-05 M
IC50 [6]: 3e-05 M
Compound: CC(C)Cn1c(=O)n(C)c(=O)c2[nH]cnc21 [IBMX, reference compound]

IC50 [7]: 1.15e-08 M
Compound: COC1(C2=NCCN2)COc2ccccc2O1 (stereo not shown) [RX 821002, reference compound]

IC50 [9]: 3.78 nM
Compound: CCCCCN(CCCCC)C(=O)C(CCC(=O)O)NC(=O)c1ccc(Cl)c(Cl)c1 (stereo not shown) [lorglumide, reference compound]

IC50 [10]: 2.9e-07 M
Compound: GNF-351 [reference compound]

Reference: article PMC10810011 (Expert opinion on drug delivery, 2023)
